The source of these data is US11661431B2, “Thienopyrrole compounds” (Gilead Sciences, Inc., priority 2021, dated 2023).

What is called EC50 is the concentration at which the effect is half-maximal.

Some results are limits rather than exact numbers.

The target of assay [1] is TLR7 (Homo sapiens (Human), UniProt Q9NYK1). In words: TLR7 human peripheral blood mononuclear cell (PBMC) cell-based assay (GS-986 as agonist; IL-6 and IFNα readout). Particulars: human PBMCs, TLR7 agonist GS-986 at 400 nM, 6 hours, antagonist potency; read-out: TLR-7 EC50. The method, boiled down:
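IL-6 and IFNα released into supernatant were quantified by electrochemiluminescence immunoassay. Before that, human PBMCs at 100,000 per well received a 10-point antagonist titration for 1 h, then TLR7 agonist for 6 more hours, all at 37 °C, 5% CO2.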

Assay [2] concerns the target TLR8 (Homo sapiens (Human), UniProt Q9NR97). In words: TLR8 human peripheral blood mononuclear cell (PBMC) cell-based assay (Compound A as agonist; TNFα and IL12p40 readout). The note with it: human PBMCs, TLR8 agonist Compound A at 800 nM, 6 hours, antagonist potency; read-out: TLR-8 EC50.

Chain of TLR8 (Q9NR97 27-1041): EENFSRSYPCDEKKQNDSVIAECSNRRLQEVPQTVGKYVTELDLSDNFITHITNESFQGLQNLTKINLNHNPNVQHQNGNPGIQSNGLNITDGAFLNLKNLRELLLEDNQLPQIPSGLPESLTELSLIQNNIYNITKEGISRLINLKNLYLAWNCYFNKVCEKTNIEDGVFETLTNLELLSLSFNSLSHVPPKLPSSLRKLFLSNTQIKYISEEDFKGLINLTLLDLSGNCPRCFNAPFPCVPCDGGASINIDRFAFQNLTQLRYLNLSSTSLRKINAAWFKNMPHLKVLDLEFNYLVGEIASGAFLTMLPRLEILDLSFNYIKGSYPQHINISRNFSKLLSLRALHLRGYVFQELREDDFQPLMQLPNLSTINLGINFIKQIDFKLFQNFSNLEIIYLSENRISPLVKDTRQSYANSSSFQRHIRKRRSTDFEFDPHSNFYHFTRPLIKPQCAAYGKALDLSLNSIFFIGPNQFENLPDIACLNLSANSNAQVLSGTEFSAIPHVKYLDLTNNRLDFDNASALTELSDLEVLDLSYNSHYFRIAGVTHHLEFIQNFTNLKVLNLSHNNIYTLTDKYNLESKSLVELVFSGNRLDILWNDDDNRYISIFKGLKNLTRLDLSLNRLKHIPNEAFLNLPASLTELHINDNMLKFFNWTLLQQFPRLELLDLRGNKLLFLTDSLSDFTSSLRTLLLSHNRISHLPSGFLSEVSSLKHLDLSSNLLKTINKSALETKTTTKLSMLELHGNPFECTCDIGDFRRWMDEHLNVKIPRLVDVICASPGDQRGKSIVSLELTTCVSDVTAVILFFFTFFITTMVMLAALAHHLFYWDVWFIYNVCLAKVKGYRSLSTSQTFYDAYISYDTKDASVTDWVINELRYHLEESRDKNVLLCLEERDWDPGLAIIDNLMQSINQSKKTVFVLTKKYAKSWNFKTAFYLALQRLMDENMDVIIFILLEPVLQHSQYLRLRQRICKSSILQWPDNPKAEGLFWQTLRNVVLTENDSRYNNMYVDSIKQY
Chain of TLR7 (Q9NYK1 27-1049): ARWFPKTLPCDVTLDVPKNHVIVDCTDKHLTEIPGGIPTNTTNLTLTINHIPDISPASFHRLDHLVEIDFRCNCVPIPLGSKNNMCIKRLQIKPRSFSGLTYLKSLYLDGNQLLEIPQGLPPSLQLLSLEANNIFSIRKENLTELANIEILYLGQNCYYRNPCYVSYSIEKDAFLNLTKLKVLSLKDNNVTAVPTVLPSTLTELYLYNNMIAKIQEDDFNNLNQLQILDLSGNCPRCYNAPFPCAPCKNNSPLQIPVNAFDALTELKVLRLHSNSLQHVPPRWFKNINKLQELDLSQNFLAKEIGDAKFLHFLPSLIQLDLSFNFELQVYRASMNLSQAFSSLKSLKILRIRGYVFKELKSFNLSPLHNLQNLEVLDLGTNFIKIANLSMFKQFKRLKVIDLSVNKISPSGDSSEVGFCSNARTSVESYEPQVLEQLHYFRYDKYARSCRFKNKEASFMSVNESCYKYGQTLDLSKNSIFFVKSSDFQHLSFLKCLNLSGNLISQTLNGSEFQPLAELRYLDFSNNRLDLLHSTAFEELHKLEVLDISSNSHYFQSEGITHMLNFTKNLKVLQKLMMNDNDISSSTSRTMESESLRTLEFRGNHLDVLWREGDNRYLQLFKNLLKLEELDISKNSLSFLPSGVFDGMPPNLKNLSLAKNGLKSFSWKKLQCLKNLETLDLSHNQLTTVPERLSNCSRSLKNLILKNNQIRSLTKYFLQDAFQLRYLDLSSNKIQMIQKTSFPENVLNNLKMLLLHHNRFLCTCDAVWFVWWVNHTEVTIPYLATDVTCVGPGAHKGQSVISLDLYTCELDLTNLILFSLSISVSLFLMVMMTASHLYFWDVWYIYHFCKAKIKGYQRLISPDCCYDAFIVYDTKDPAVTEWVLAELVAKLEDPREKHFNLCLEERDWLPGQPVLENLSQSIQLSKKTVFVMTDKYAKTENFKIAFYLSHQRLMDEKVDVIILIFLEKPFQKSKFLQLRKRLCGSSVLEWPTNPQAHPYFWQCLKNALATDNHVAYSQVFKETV

With `Cc1c(C2CCN(C(=O)[C@H]3COCCN3C)CC2)sc2[nH]c(-c3cc(C)c4ncnn4c3)c(C(C)C)c12` [Example 48], the results for the EC50 in assay [1] and in assay [2] were 0.29 nM and 19.7 nM, respectively.

With `Cc1c(C2CCN(C(=O)[C@@H]3COCCN3C)CC2)sc2[nH]c(-c3cc(C)c4ncnn4c3)c(C(C)C)c12` [Example 49], the values for the concentration for a half-maximal effect (EC50) in assay [1] and in assay [2] were 1.12 nM and 27.9 nM, respectively.

As to `Cc1c(C2CCN(C(=O)CN3CCOCC3)CC2)sc2[nH]c(-c3cc(C)c4ncnn4c3)c(C(C)C)c12` [Example 50], the EC50 in assay [1] is 1.76 nM; in assay [2], 35.9 nM.

For the molecule `Cc1c(C2CCN(C(=O)C3(C)COCCN3)CC2)sc2[nH]c(-c3cc(C)c4ncnn4c3)c(C(C)C)c12` (stereo not drawn) [Example 51], the concentration for a half-maximal effect (EC50) in assay [1] was 0.43 nM; in assay [2] it was 19.3 nM.

In the case of `Cc1c(-c2[nH]c3sc(C4CC5(C4)CN(C(=O)[C@H]4COCCN4)C5)c(C)c3c2C(C)C)cn2ncnc2c1C` [Example 52], the values for the concentration for a half-maximal effect (EC50) in assay [1] and in assay [2] were 2.08 nM and 1.12 nM, respectively.

With `Cc1c(C2CC3(C2)CN(C(=O)[C@H]2COCCN2)C3)sc2[nH]c(-c3cc(C)c4ncnn4c3)c(C(C)C)c12` [Example 53], the EC50 in assay [1] amounted to 0.27 nM; in assay [2] it was 2.42 nM.

For `Cc1c(C2CCN(C(=O)C3COCC(C)(C)N3)CC2)sc2[nH]c(-c3cc(C)c4ncnn4c3)c(C(C)C)c12` (stereo not drawn) [Example 54], the EC50 in assay [1] was found to be 0.59 nM; in assay [2], 19.8 nM.

Regarding `Cc1c(C2CCN(C(=O)C34COC(CN3)C4)CC2)sc2[nH]c(-c3cc(C)c4ncnn4c3)c(C(C)C)c12` (stereo not drawn) [Example 55], the EC50 in assay [1] was found to be 0.23 nM; in assay [2] it was 16.6 nM.

With `Cc1cc(-c2[nH]c3sc(C4CCN(C(=O)[C@H]5COCCN5)CC4)cc3c2C(C)C)cn2ncnc12` [Example 57], the figures for the EC50 in assay [1] and in assay [2] were 0.27 nM and 15.5 nM, respectively.

Turning to `Cc1c(C2CC3(CNC3)C2)sc2[nH]c(-c3cc(C)c4ncnn4c3)c(C(C)C)c12` [Example 58, 4-isopropyl-3-methyl-5-(8-methyl-[1,2,4]triazolo[1,5-a]pyridin-6-yl)-2-(2-azaspiro[3.3]heptan-6-yl)-6H-thieno[2,3-b]pyrrole], the EC50 in assay [1] was determined as 0.24 nM; in assay [2] it was 1.74 nM.

With `Cc1c(C2CC3COCC(C2)N3)sc2[nH]c(-c3cc(C)c4ncnn4c3)c(C(C)C)c12` (stereo not drawn) [Example 59], the EC50 amounted to 2.97 nM in assay [1] and 28.4 nM in assay [2].

Consider `Cc1c(-c2[nH]c3sc(C4CC5(CNC5)C4)c(C)c3c2C(C)C)cn2ncnc2c1C` [Example 60], for which the results for the EC50 in assay [1] and in assay [2] were 1.81 nM and 0.93 nM, respectively.

Consider `Cc1c(C2CCC3(CNC3)C2)sc2[nH]c(-c3cc(C)c4ncnn4c3)c(C(C)C)c12` (stereo not drawn) [Example 61], for which the EC50 worked out at 0.19 nM in assay [1] and 9.09 nM in assay [2].

Take `Cc1c(C2CC3CCC(C2)N3CC(N)=O)sc2[nH]c(-c3cc(C)c4ncnn4c3)c(C(C)C)c12` (stereo not drawn) [Example 62, 2-(3-(4-isopropyl-3-methyl-5-(8-methyl-[1,2,4]triazolo[1,5-a]pyridin-6-yl)-6H-thieno[2,3-b]pyrrol-2-yl)-8-azabicyclo[3.2.1]octan-8-yl)acetamide]: the half-maximal effective concentration (EC50) was 0.19 nM in assay [1] and 7.17 nM in assay [2].

Turning to `Cc1c(C2C3CCC2CN(CC(N)=O)C3)sc2[nH]c(-c3cc(C)c4ncnn4c3)c(C(C)C)c12` (stereo not drawn) [Example 63], the values for the EC50 in assay [1] and in assay [2] were 0.26 nM and 27.3 nM, respectively.

Consider `Cc1c(C2CN(CC(N)=O)C2)sc2[nH]c(-c3cc(C)c4ncnn4c3)c(C(C)C)c12` [Example 64], for which the concentration giving a half-maximal response (EC50) in assay [1] was 3.12 nM; in assay [2], 9.48 nM.

`Cc1c(C2C3CC2CN(CC(N)=O)C3)sc2[nH]c(-c3cc(C)c4ncnn4c3)c(C(C)C)c12` (stereo not drawn) [Example 65]: the half-maximal effective concentration (EC50) in assay [1] came to 28.1 nM; in assay [2], 33.1 nM.

Consider `Cc1c(C2C[C@@H]3C[C@H]2CN3CC(N)=O)sc2[nH]c(-c3cc(C)c4ncnn4c3)c(C(C)C)c12` (stereo partly drawn) [Example 66], for which the concentration giving a half-maximal response (EC50) in assay [1] came out at 0.12 nM; in assay [2], 0.16 nM.

On to `Cc1c([C@H]2C[C@@H]3CN(CC(N)=O)C[C@@H]3C2)sc2[nH]c(-c3cc(C)c4ncnn4c3)c(C(C)C)c12` [Example 70, 2-((3aR,6aS)-5-(4-isopropyl-3-methyl-5-(8-methyl-[1,2,4]triazolo[1,5-a]pyridin-6-yl)-6H-thieno[2,3-b]pyrrol-2-yl)hexahydrocyclopenta[c]pyrrol-2(1H)-yl)acetamide], for which the half-maximal effective concentration (EC50) was 0.05 nM in assay [1] and 5.95 nM in assay [2].

For the molecule `Cc1c([C@@H]2C[C@@H]3CN(CC(N)=O)C[C@@H]3C2)sc2[nH]c(-c3cc(C)c4ncnn4c3)c(C(C)C)c12` [Example 71, 2-((3aR,6aS)-5-(4-isopropyl-3-methyl-5-(8-methyl-[1,2,4]triazolo[1,5-a]pyridin-6-yl)-6H-thieno[2,3-b]pyrrol-2-yl)hexahydrocyclopenta[c]pyrrol-2(1H)-yl)acetamide], the EC50 in assay [1] stood at 0.45 nM; in assay [2], 7.75 nM.

Turning to `Cc1c(-c2[nH]c3sc([C@@H]4C[C@@H]5C[C@H]4CN5)c(C)c3c2C(C)C)cn2ncnc2c1C` [Example 72, 2-((1S,4R,5R)-2-azabicyclo[2.2.1]heptan-5-yl)-5-(7,8-dimethyl-[1,2,4]triazolo[1,5-a]pyridin-6-yl)-4-isopropyl-3-methyl-6H-thieno[2,3-b]pyrrole], the figures for the 50% effective concentration (EC50) in assay [1] and in assay [2] were 0.1 nM and 0.11 nM, respectively.

`Cc1c(-c2[nH]c3sc(C4CCNCC4)c(C)c3c2C(C)C)cn2ncnc2c1C` [Example 73]: the EC50 in assay [1] came to 0.1 nM; in assay [2], 4.16 nM.

`Cc1c(-c2[nH]c3sc([C@H]4C[C@H]5C[C@@H]4CN5)c(C)c3c2C(C)C)cn2ncnc2c1C` [Example 74]: the EC50 came out at 0.05 nM in assay [1] and 0.94 nM in assay [2].

On to `Cc1c(-c2[nH]c3sc(C4CC5(CNCCO5)C4)c(C)c3c2C(C)C)cn2ncnc2c1C` (stereo not drawn) [Example 76, 2-(5-(7,8-dimethyl-[1,2,4]triazolo[1,5-a]pyridin-6-yl)-4-isopropyl-3-methyl-6H-thieno[2,3-b]pyrrol-2-yl)-5-oxa-8-azaspiro[3.5]nonane], for which the EC50 in assay [1] stood at 0.05 nM; in assay [2] it was 0.24 nM.

`Cc1c(-c2[nH]c3sc(C45CCNCC4C5)c(C)c3c2C(C)C)cn2ncnc2c1C` (stereo not drawn) [Example 77, 2-(3-azabicyclo[4.1.0]heptan-6-yl)-5-(7,8-dimethyl-[1,2,4]triazolo[1,5-a]pyridin-6-yl)-4-isopropyl-3-methyl-6H-thieno[2,3-b]pyrrole]: the half-maximal effective concentration (EC50) in assay [1] was 0.09 nM; in assay [2], 2.89 nM.

As to `Cc1c(-c2[nH]c3sc(C4COC5(CCNCC5)C4)c(C)c3c2C(C)C)cn2ncnc2c1C` (stereo not drawn) [Example 78, 3-(5-(7,8-dimethyl-[1,2,4]triazolo[1,5-a]pyridin-6-yl)-4-isopropyl-3-methyl-6H-thieno[2,3-b]pyrrol-2-yl)-1-oxa-8-azaspiro[4.5]decane], the EC50 turned out to be 0.42 nM in assay [1] and 5.44 nM in assay [2].

On to `Cc1c(-c2[nH]c3sc(C4COC5(CCN(CC(N)=O)CC5)C4)c(C)c3c2C(C)C)cn2ncnc2c1C` (stereo not drawn) [Example 80], for which the EC50 was 2.15 nM in assay [1] and 15.2 nM in assay [2].

For the molecule `Cc1c(-c2[nH]c3sc([C@@H]4C[C@@H]5C[C@H]4CN5C(C)C(N)=O)c(C)c3c2C(C)C)cn2ncnc2c1C` (stereo partly drawn) [Example 81], the half-maximal effective concentration (EC50) in assay [1] was 0.19 nM; in assay [2] it was 0.45 nM.

On to `Cc1c(-c2[nH]c3sc([C@@H]4C[C@@H]5C[C@H]4CN5CCS(C)(=O)=O)c(C)c3c2C(C)C)cn2ncnc2c1C` [Example 83], for which the concentration giving a half-maximal response (EC50) was determined as 0.45 nM in assay [1] and 0.61 nM in assay [2].

As for `Cc1c(-c2[nH]c3sc(C4CCN(C(=O)[C@@H]5COCCN5)CC4)c(C)c3c2C(C)C)cn2ncnc2c1C` [Example 92], the EC50 in assay [1] was found to be 1.94 nM; in assay [2], 2.67 nM.

Consider `Cc1c(-c2[nH]c3sc(C45CCN(CC(N)=O)CC4C5)c(C)c3c2C(C)C)cn2ncnc2c1C` (stereo not drawn) [Example 93], for which the EC50 was determined as 1.36 nM in assay [1] and 18.4 nM in assay [2].

With `Cc1c(-c2[nH]c3sc(C4CCN(C(=O)[C@H]5C[C@@]6(CNCCO6)C5)CC4)c(C)c3c2C(C)C)cn2ncnc2c1C` [Example 94, [4-[5-(7,8-dimethyl-[1,2,4]triazolo[1,5-a]pyridin-6-yl)-4-isopropyl-3-methyl-6H-thieno[2,3-b]pyrrol-2-yl]-1-piperidyl]-(5-oxa-8-azaspiro[3.5]nonan-2-yl)methanone], the EC50 in assay [1] came to 0.05 nM; in assay [2] it was 2.3 nM.

Take `Cc1c(-c2[nH]c3sc(C4CCN(C(=O)[C@@H]5CCCN5)CC4)c(C)c3c2C(C)C)cn2ncnc2c1C` [Example 99]: the values for the EC50 in assay [1] and in assay [2] were 0.43 nM and 5.96 nM, respectively.

For the molecule `Cc1c(-c2[nH]c3sc(C4CCN(C(=O)[C@H]5CN6CCCC6CO5)CC4)c(C)c3c2C(C)C)cn2ncnc2c1C` (stereo partly drawn) [Example 104], the EC50 in assay [1] was 0.1 nM; in assay [2], 2.49 nM.

As to `Cc1c(-c2[nH]c3sc(C4CCN(C(=O)C5CN6CC7CC6(CO5)C7)CC4)c(C)c3c2C(C)C)cn2ncnc2c1C` (stereo not drawn) [Example 105], the 50% effective concentration (EC50) is < 0.05 nM in assay [1] and 4.17 nM in assay [2].

In the case of `Cc1c(-c2[nH]c3sc(C4CCN(C(=O)C5(N)COC5)CC4)c(C)c3c2C(C)C)cn2ncnc2c1C` [Example 106], the values for the EC50 in assay [1] and in assay [2] were 0.34 nM and 49.3 nM, respectively.

As to `Cc1c(-c2[nH]c3sc(C4CCN(C(=O)C56COC(CN5)C6)CC4)c(C)c3c2C(C)C)cn2ncnc2c1C` (stereo not drawn) [Example 107], the half-maximal effective concentration (EC50) in assay [1] is < 0.05 nM; in assay [2], 6.79 nM.

In the case of `Cc1c(-c2[nH]c3sc(C4CCN(C(=O)C56CCC(CN5)OC6)CC4)c(C)c3c2C(C)C)cn2ncnc2c1C` (stereo not drawn) [Example 108], the concentration for a half-maximal effect (EC50) in assay [1] came to 0.2 nM; in assay [2], 4.77 nM.

Turning to `Cc1c(-c2[nH]c3sc(C4CCN(C(=O)[C@@H]5CNCCO5)CC4)c(C)c3c2C(C)C)cn2ncnc2c1C` [Example 109], the figures for the EC50 in assay [1] and in assay [2] were < 0.05 nM and 3.45 nM, respectively.
